In patent US20070066627A1, “Hydrazone derivatives for combatting harmful insects and arachnids” (priority 2004, published 2007):

Key:
Format in all cases: in vivo
[1] = system: Silverleaf Whitefly (bemisia argentifolii); experiment: Silverleaf whitefly test on cotton plants; conditions: 72 h, cotyledons dipped, adults, 3 days after treatment, read-out: mortality compared to untreated controls
Protocol: 2.5 Silverleaf Whitefly (bemisia argentifolii)
(§1) The active compounds were formulated in 50:50 acetone:water and 100 ppm Kinetic® surfactant.
Selected cotton plants were grown to the cotyledon state (one plant per pot). The cotyledons were dipped into the test solution to provide complete coverage of the foliage and placed in a well-vented area to dry. Each pot with treated seedling was placed in a plastic cup and 10 to 12 whitefly adults (approximately 3-5 day old) were introduced. The insects were collected using an aspirator and an 0.6 cm, non-toxic Tygon® tubing (R-3603) connected to a barrier pipette tip. The tip, containing the collected insects, was then gently inserted into the soil containing the treated plant, allowing insects to crawl out of the tip to reach the foliage for feeding. The cups were covered with a reusable screened lid (150 micron mesh polyester screen PeCap from Tetko Inc). Test plants were maintained in the holding room at about 25° C. and 20-40% relative humidity for 3 days avoiding direct exposure to the fluorescent light (24 hour photoperiod) to prevent trapping of heat inside the cup. Mortality was assessed 3 days after treatment of the plants.

[2] = system: 2-Spotted Spider Mite (tetranychus urticae, OP-Resistant Strain); experiment: 2-spotted spider mite test on Sieva lima bean plants; conditions: 120 h, plants dipped, after 5 days, read-out: mortality compared to untreated controls
Protocol: 2.6 2-Spotted Spider Mite (tetranychus urticae, OP-Resistant Strain)
Sieva lima bean plants with primary leaves expanded to 7-12 cm were infested by placing on each a small piece from an infested leaf (with about 100 mites) taken from the main colony. This was done at about 2 hours before treatment to allow the mites to move over to the test plant to lay eggs. The piece of leaf used to transfer the mites was removed. The newly-infested plants were dipped in the test solution and allowed to dry. The test plants were kept under fluorescent light (24 hour photoperiod) at about 25° C. and 20-40% relative humidity. After 5 days, one leaf was removed and mortality counts were made.

[3] = system: Southern Armyworm (Spodoptera eridania), 2nd Instar Larvae; experiment: Southern armyworm leaf-dip test, 2nd instar larvae; conditions: foliar, 120 h, observation at 5 days, read-out: mortality in comparison with untreated controls
Protocol: 2.1 Southern Armyworm (Spodoptera eridania), 2nd Instar Larvae
The active compounds were formulated for testing the activity against insects and arachnids as a 10.000 ppm solution in a mixture of 35% acetone and water, which was diluted with water, if needed.
A Sieva lima bean leaf expanded to 78 cm in length is dipped in the test solution with agitation for 3 seconds and allowed to dry in a hood. The leaf is then placed in a 100×10 mm petri dish containing a damp filter paper on the bottom and ten 2nd instar caterpillars. At 5 days, observations are made of mortality, reduced feeding, or any interference with normal molting.

[4] = system: Cotton Aphid (aphis gossypii); experiment: Cotton aphid test on cotton cotyledons; conditions: 120 h, cotyledons dipped, after 5 days, read-out: mortality in comparison with untreated controls
Text: 2.2 Cotton Aphid (aphis gossypii)
as §1
Cotton plants at the cotyledon stage (one plant per pot) were infested by placing a heavily infested leaf from the main colony on top of each cotyledon. The aphids were allowed to transfer to the host plant overnight, and the leaf used to transfer the aphids was removed. The cotyledons were dipped in the test solution and allowed to dry. After 5 days, mortality counts were made.

[5] = system: Orchid Thrips (dichromothrips corbetti); experiment: Orchid thrips floral-immersion test; conditions: 96 h, adults, after 4 days, read-out: mortality compared to untreated controls
Protocol: 2.7 Orchid Thrips (dichromothrips corbetti)
Dichromothrips corbetti adults used for bioassay were obtained from a colony maintained continuously under laboratory conditions. For testing purposes, the test compound was diluted to a concentration of 500 ppm (wt compound:vol diluent) in a 1:1 mixture of acetone:water, plus 0.01% Kinetic® surfactant.
Thrips potency of each compound was evaluated by using a floral-immersion technique. Plastic petri dishes were used as test arenas. All petals of individual, intact orchid flowers were dipped into treatment solution for approximately 3 seconds and allowed to dry for 2 hours. Treated flowers were placed into individual petri dishes along with 10-15 adult thrips. The petri dishes were then covered with lids. All test arenas were held under continuous light and a temperature of about 28° C. for duration of the assay. After 4 days, the numbers of live thrips were counted on each flower, and along inner walls of each petri dish. The level of thrips mortality was extrapolated from pretreatment thrips numbers.

Compound	mortality at 300 ppm [1] [%]	mortality at 300 ppm [2] [%]	other results
CCC(C=NNC(=O)c1ccc(F)cc1)=Cc1ccccc1 [Compound 189]	> 80		
CC(C=NNC(=O)c1ccc(C)s1)=Cc1ccc(OC(F)F)cc1 [Compound 91]		> 75	
COc1ccccc1C(=O)NN=CC(C)=Cc1cccc(F)c1 [Compound 187]	> 80		
O=C(NN=CC=Cc1ccccc1)c1ccc(Cl)s1 [Compound 96]		> 75	
CC(C=NNC(=O)c1ccc(C)cc1)=Cc1ccccc1 [Compound 183]	> 80	> 75	mortality at 300 ppm [3]: > 80%
CC(C=NNC(=O)c1ccccn1)=Cc1ccc(F)cc1 [Compound 158]	> 80		
CC(C=NNC(=O)c1ccccn1)=Cc1ccccc1 [Compound 156]	> 80		mortality at 300 ppm [4]: > 75%
CCC(C=NNC(=O)c1ccccc1F)=Cc1ccccc1 [Compound 193]	> 80		
CC(C=NNC(=O)c1[nH]cnc1C)=Cc1cccc(F)c1 [Compound 144]			mortality at 500 ppm [5]: > 95%
CC(C=NNC(=O)c1cccs1)=Cc1ccccc1 [Compound 50]	> 80		
CC(C=NNC(=O)c1[nH]cnc1C)=Cc1ccc(Cl)cc1Cl [Compound 138]		> 75	
CC(C=NNC(=O)Cc1cccc2ccccc12)=Cc1cccc(F)c1 [Compound 21]		> 75	
